Source: patent US8124365B2, “Identification of genotype-selective anti-tumor agents” (Whitehead Institute for Biomedical Research, priority 2003, dated 2012)

Assays:
Format in all cases: cell-based, human
[1] = tested on: BJ-TERT/LT/ST/RAS^V12 cells; test: Pan-caspase inhibitor block of compound-induced cell death; conditions: 50 μM inhibitor
[2] = tested on: reactive oxygen species; test: ROS analysis, flow cytometry using H2DCF-DA; conditions: engineered cells
Source text: 2′7′ dichlorodihydrofluorescein diacetate (H2DCF-DA) is a non-fluorescent cell permeable compound. The endogenous esterase enzyme inside the cell cleaves the diacetate part, and it can no longer pass out of the cell. Thus it accumulates in the cell. Then H2DCF reacts with ROS to form fluorescent dichlorofluorescene (DCF) which can be measured by flow cytometry in FL1 channel. • 1. Seed cells at 3×10^5 cells per dish in 60 mm dishes and allow to grow overnight. • 2. Treat with the test compound for different period of time (1-10 hr). • 3. Maintain one dish for untreated cells, compound treated cell and positive control dish (hydrogen peroxide treated) for each time point. • 4. Incubate the cells with 10 μM of H2DCF-DA for 10 minutes at 37° C. • 5. For positive control cells, after 5 minutes of H2DCF-DA loading, add 500 μM of hydrogen peroxide and incubate for 5 minutes further. • 6. Harvest the cell by trypsinization. • 7. Wash with cold PBS-twice. • 8. Resuspend the pellet in 100 μl of PBS and transfer into 5 ml FACS tube. • 9. Add 5 μl of propidium iodide (50 μg/ml) and incubate for 10 minutes on ice in dark. • 10. Add 400 μl of PBS and analyze by flow cytometry (Becton-Dickinson). • 11. Acquire the data and analyze using CellQuest software program. • 12. Take only propidium iodiode negative cells (viable cells) for the analysis for DCF staining using the FL1 channel, PI in FL3 channel, plot a quadrant chart.

[3] = tested on: BJ-TERT/LT/ST/RAS^V12 cells; test: Calcein AM viability assay, dilution series, BJ-TERT/LT/ST/RAS^V12 tumorigenic cells
Protocol: Described here is work carried out to identify compounds with increased potency or activity in the presence of hTERT, LT, ST, E6, E7 or RAS^V12. […] The primary screen tested (in quadruplicate) the effect of treating tumorigenic […], corresponding to 10 μM for a compound with a molecular weight of 400, which is the approximate median molecular weight of the libraries. […] In live cells, calcein AM is cleaved by intracellular esterases, forming the anionic fluorescent derivative calcein, which cannot diffuse out of live cells. […] The IC50 value (concentration required to inhibit 50% of the calcein AM signal) was calculated for each compound in each cell line (Table 1).
Calcein acetoxylmethyl ester (AM) is a cell membrane-permeable, non-fluorescent compound that is cleaved by intracellular esterases to form the anionic, cell-impermeable, fluorescent compound calcein. Viable cells are stained by calcein because of the presence of intracellular esterases and because the intact plasma membrane prevents fluorescent calcein from leaking out of cells (Wang et al., 1993, supra). Cells were seeded in 384-well plates using a Zymark Sciclone ALH, treated with each […], washed with phosphate-buffered saline on a Packard Minitrak with a 384-well washer and incubated for four hours with 0.7 μg/mL calcein (Molecular Probes). Total fluorescence intensity in each well was recorded on a Packard Fusion platereader, and converted to a percent inhibition of signal by subtracting the instrument background and dividing by the average signal obtained when cells were not treated with any compound.
Compounds to be retested were purchased from manufacturers. Stocks were prepared in DMSO at a concentration of 1 mg/ml in 384-well polypropylene plates with a 16-point, two-fold dilution dose curve of each compound in a column, in duplicates. Column 1-2 and 23-24 were left empty for controls. Daughter retest plates were prepared from stock retest plate by diluting 66.6 fold in DMEM in 384-well deep-deep well plates (4.5 μl transfer into 300 μl). Cells were seeded at a density of 6000 per well in 40 μl, and 20 μl was added from a daughter retest plate. […]
The IC50 in primary BJ cells was divided by the IC50 in BJ-TERT/LT/ST/RAS^V12 tumorigenic cells to obtain a tumor selectivity ratio for each compound. The compound selectivity for each genetic element was determined by calculating the selectivity ratio for each subsequent pair of cell lines in a series.

[4] = tested on: TOP1; test: Western blot of TOP1 expression in okadaic acid-treated BJ primary cells
Source text: (A-C) Western blot of lysates from BJ, BJ-TERT, BJ-TERT/LT/ST, BJ-TERT/LT/ST/RAS^V12, BJ-TERT/LT/RAS^V12 and BJ-TERT/LT/RAS^V12/ST cells with an antibody directed against topoisomerase II (A) or TOPI (B, C). In panel (C), cells were transfected with an siRNA directed against TOPI, lamic A/C or with a control double strand DNA duplex of the same length (TOPI dsDNA). In each case, the blot was probed with an antibody against eIF-4E to identify differences in the amount of protein loaded. The relative amount is quantitated below each band. […] Cell number was determined after transfection with an siRNA directed against TOPI and treatment with the indicated concentrations of camptothecin. (E) Okadaic acid, an inhibitor of PP2A and other cellular phosphatases, sensitizes primary human cells to camptothecin. BJ primary cells were treated simultaneously with the indicated concentrations of both camptothecin and okadaic acid and the effect on calcein AM viability staining was determined. […] BJ primary cells were treated with the indicated concentrations of okadaic acid and the expression level of TOPI was determined by western blot. The relative amount is quantitated below each band. […]

[5] = tested on: BJ primary cells; test: Co-treatment of BJ primary cells with camptothecin or erastin and a second compound, calcein AM viability staining; conditions: for effect on BJ cell viability on its own: calcein AM; for sensitization of BJ cells to camptothecin: simultaneous treatment with camptothecin
Source text: (A-C) Western blot of lysates from BJ, BJ-TERT, BJ-TERT/LT/ST, BJ-TERT/LT/ST/RAS^V12, BJ-TERT/LT/RAS^V12 and BJ-TERT/LT/RAS^V12/ST cells with an antibody directed against topoisomerase II (A) or TOPI (B, C). In panel (C), cells were transfected with an siRNA directed against TOPI, lamic A/C or with a control double strand DNA duplex of the same length (TOPI dsDNA). In each case, the blot was probed with an antibody against eIF-4E to identify differences in the amount of protein loaded. The relative amount is quantitated below each band. […] Cell number was determined after transfection with an siRNA directed against TOPI and treatment with the indicated concentrations of camptothecin. (E) Okadaic acid, an inhibitor of PP2A and other cellular phosphatases, sensitizes primary human cells to camptothecin. BJ primary cells were treated simultaneously with the indicated concentrations of both camptothecin and okadaic acid and the effect on calcein AM viability staining was determined. […] BJ primary cells were treated with the indicated concentrations of okadaic acid and the expression level of TOPI was determined by western blot. The relative amount is quantitated below each band.
The compounds in group (iii) are camptothecin (CPT) and a novel compound from a combinatorial library, which Applicants have named erastin, for eradicator of RAS and ST-expressing cells (FIG. 2). Efficient CPT-induced and erastin-induced cell death requires the presence of both ST and RAS^V12 (FIGS. 3 and 4 and Table 1). Although CPT and erastin have a similar genetic basis of selectivity, they have distinct mechanisms of action. […] The phosphatase inhibitor okadaic acid was capable of sensitizing otherwise resistant BJ primary cells to CPT (FIG. 5E), possibly because okadaic acid upregulates TOP1 (FIG. 5F).

[6] = tested on: BJELR cells; test: Screen of ACL library for suppressors of erastin activity in BJELR cells; conditions: 5 μg/ml erastin
Protocol: ACL library comprises 1,540 compounds and all compounds were prepared in DMSO at […] in 384-well polypropylene plates and stored at −20° C. Replica daughter plates for each library plate were prepared using Zymark Scilone ALH. The daughter plates were diluted 50 fold in DMEM and compound concentration in the daughter plate is 80 μg/ml with 2% DMSO. In assay plate compound from the daughter plate is diluted 20 fold with cell suspension, thus final concentration of each compound is 4 μg/ml.
BJELR cells were seeded at 6000 cells/well (57 μl) (for co-treatment screen) and 5000 cells/well (57 μl) (for pretreatment screen) in 384-well black, clear bottom plates using syringe bulk dispenser. For co-treatment suppressor screen, cells were treated with 3 μl of compound from the daughter plates of ACL library (final concentration in assay plate at 4 μg/ml) and at the same time treated with 5 μg/ml of erastin. Compound transfer was done using 384 fixed cannula head. Plates were incubated for 48 hours at 37° C. in incubator with 5% CO2. For the pretreatment screens, cells were pre-incubated with the compound from ACL daughter library plate for overnight and then treated with 5 μg/ml of erastin for further 48 hours. […] Fluorescence intensity was determined using Fusion platereader with filters centered in an excitation of 485 nm and emission of 535 nm. […]

[7] = tested on: tumor cells (BJELR cells) versus normal cells (BJEH cells); test: Testing of erastin analogs for activity and selectivity in tumor cells versus normal cells
Source text: Applicants additionally tested 135 analogs of erastin for activity and selectivity in tumor cells versus normal cells. […] This compound was named erastin B (see FIG. 8). […] BJELR cells are BJ-TERT/LT/ST/RAS^V12 cells, and BJEH are BJ-TERT cells.

## COC(=O)CC(NC(=O)OC(C)(C)C)C(=O)CF [BOC-D-FMK, Boc-Asp(Ome)-fluoromethyl ketone]
[1]
  block of cell death induced by CPT: partially blocked cell death induced by CPT
  block of cell death induced by erastin: not by erastin

## COc1cccc2c1C(=O)c1c(O)c3c(c(O)c1C2=O)C[C@@](O)(C(C)=O)C[C@@H]3O[C@H]1C[C@H](N)[C@H](O)[C@H](C)O1 [Daunorubicin, daunorubicin]
[2]
  formation of reactive oxygen species: did not observe the formation of ROS

## COc1cccc2c1C(=O)c1c(O)c3c(c(O)c1C2=O)C[C@@](O)(C(=O)CO)C[C@@H]3O[C@H]1C[C@H](N)[C@H](O)[C@H](C)O1 [Doxorubicin, doxorubicin]
[2]
  formation of reactive oxygen species: did not observe the formation of ROS

## CCOc1ccccc1-n1c(C(C)N2CCN(C(=O)COc3ccc(Cl)cc3)CC2)nc2ccccc2c1=O (stereo not drawn) [Erastin, erastin]
[3]; BJ-TERT/LT/ST/RAS^V12 cells, within 18 hours
  effectiveness of cell death: 100%

## O=C1c2c(O)ccc(O)c2C(=O)c2c(NCCNCCO)ccc(NCCNCCO)c21 [Mitoxantrone, mitoxantrone]
[2]
  formation of reactive oxygen species: did not observe the formation of ROS
[3]; IC50 in primary BJ cells divided by IC50 in BJ-TERT/LT/ST/RAS^V12 tumorigenic cells
  Tumor Selectivity: 16

## C=C1[C@@H](O)[C@@H]2O[C@]3(CC[C@H](/C=C/[C@@H](C)[C@@H]4CC(C)=C[C@@]5(O[C@H](C[C@@](C)(O)C(=O)O)CC[C@H]5O)O4)O3)CC[C@H]2O[C@@H]1[C@@H](O)C[C@H](C)[C@H]1O[C@@]2(CCCCO2)CC[C@H]1C [okadaic acid]
[4]
  expression level of TOP1: stimulates expression of TOP1
[5]
  sensitization of BJ or BJ-TERT cells to erastin: does not render BJ or BJ-TERT cells sensitive to erastin
  sensitization of BJ cells to camptothecin: renders BJ cells sensitive to camptothecin
[5]; 3.4 nM
  effect on BJ cell viability on its own: no effect on its own
[5]; highest concentrations tested
  effect on BJ cell viability on its own: kills BJ cells

## COc1cc([C@@H]2c3cc4c(cc3[C@H](O)[C@H]3COC(=O)[C@H]23)OCO4)cc(OC)c1OC [podophyllotoxin]
[5]
  sensitization of BJ cells to camptothecin: does not sensitize BJ or BJ-TERT cells to CPT

## Cc1c(C)c2c(c(C)c1O)CC[C@@](C)(CCC[C@H](C)CCC[C@H](C)CCCC(C)C)O2 [α-tocopherol]
[6]
  suppression of erastin activity: suppress erastin activity

## erastin B
[7]
  activity and selectivity in tumor cells versus normal cells: active and selective, but less potent than erastin
